We go through ten molecules from paper PMC8307156, “Agelasine Diterpenoids and Cbl-b Inhibitory Ageliferins from the Coralline Demosponge Astrosclera willeyana” (Marine Drugs, 2021).

The target in this experiment is T1, Cbl-b ubiquitin ligase (N1/2 construct) (Homo sapiens, UniProt Q13191).
T1 construct: 75-nM Cbl-b (N1/2 construct) [27]
As to the kind of experiment: Cbl-b biochemical assay (in vitro autoubiquitination ELISA, inhibition of ubiquitin ligase activity). The conditions noted are these: in vitro enzymatic activity of Cbl-b ubiquitin ligase; 75-nM Cbl-b, 100 µM ATP, 60 min reaction; read-out: Cbl-b inhibitory activity IC50. How it is done:
Compounds 1–10 were tested for their ability to inhibit the in vitro enzymatic activity of the Cbl-b ubiquitin ligase (Table 3). […] There was no clear pattern of N-methylation or bromine substitution of the two pyrrole rings that directly correlated with the observed Cbl-b inhibitory activity.
An extract of Astrosclera willeyana was identified as an active source in a screening campaign of prefractionated natural product samples for the inhibition of Cbl-b ubiquitin ligase activity. The bulk extract was fractionated as described above, and the resulting fractions were evaluated for activity in the Cbl-b bioassay, the details of which have already been reported. In brief, dose response experiments with chromatography fractions and purified compounds were carried out in a Tris-HCl-based enzymatic assay buffer with the following final composition: 75-nM Cbl-b (N1/2 construct), 50-nM Ube2d2 protein (E2), 10-nM UBE1protein (E1), 50-nM biotinylated ubiquitin, and 0.5-µM unlabeled recombinant ubiquitin. The assay buffer also contained the following additives: 0.1-mM dithiothreitol, 0.5-mg/mL bovine gelatin (type B), 0.5-mM magnesium chloride, and 0.01% Triton X-100. Reactions were initiated by the addition of ATP to a final concentration of 100 µM. Following initiation, reactions were transferred to plates previously precoated overnight with 10 µg/mL of the polyubiquitin-binding domain of Cbl-b (UBA). The UBA domain of Cbl-b binds ubiquitin chains, which results in the capture and enrichment of autopolyubiquitinated Cbl-b. Following a reaction interval of 60 min, the reactions were quenched by the addition of zinc to a final concentration of 2.4 mM. Quenched reactions were incubated at room temperature overnight. Following this incubation period reaction, plates were processed as standard ELISA plates: washed thrice in Tris-buffered saline (with 0.1% Tween-20, 1X TBST), probed with avidin-conjugated horse radish peroxidase, which binds captured biotinylated ubiquitin, washed again in 1X TBST (3X), and then, an avidin-HRP-dependent fluorescent signal (indicating avidin-HRP/biotin-polyubiquitin complexes captured by the UBA coating on the plate) was detected (excitation 325 nm, emission 420 nm) using an Infinite M1000 (Tecan US, Inc., Raleigh, NC, USA) plate reader.

T1 sequence (Q13191 1-483 limits assumed): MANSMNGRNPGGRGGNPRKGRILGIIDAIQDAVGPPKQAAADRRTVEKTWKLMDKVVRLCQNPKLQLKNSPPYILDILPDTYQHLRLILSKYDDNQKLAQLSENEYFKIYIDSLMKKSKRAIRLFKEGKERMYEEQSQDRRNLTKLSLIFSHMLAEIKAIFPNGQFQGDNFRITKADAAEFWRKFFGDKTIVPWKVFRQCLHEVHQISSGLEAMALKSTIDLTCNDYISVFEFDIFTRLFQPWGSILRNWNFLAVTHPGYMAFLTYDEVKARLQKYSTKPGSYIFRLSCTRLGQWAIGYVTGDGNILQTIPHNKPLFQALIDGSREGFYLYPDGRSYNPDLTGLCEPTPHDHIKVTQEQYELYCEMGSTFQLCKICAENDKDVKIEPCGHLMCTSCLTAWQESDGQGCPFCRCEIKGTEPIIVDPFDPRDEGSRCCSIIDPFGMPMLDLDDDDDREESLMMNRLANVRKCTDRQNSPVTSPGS

Take `CC(=CCn1cnc2c1c(N)nc[n+]2C)CCC1(C)C2=CCCC(C)(C)C2CCC1C` (stereo not shown) [Compound 1, Agelasine W]: the IC50 amounted to 57000 nM. With `CNc1nc[n+](C)c2ncn(C/C=C(\C)CC[C@]3(C)C4=CCCC(C)(C)[C@H]4CC[C@H]3C)c12` [Compound 2, Agelasine X] the figure was 72000 nM. Consider `CNc1nc[n+](C)c2ncn(C/C=C(\C)CC[C@@]3(C)[C@H](C)CC[C@]4(C)C(C)=CCC[C@H]34)c12` [Compound 3, Agelasine Y], for which the IC50 turned out to be 66000 nM. The value for `Cn1cc(Br)cc1C(=O)NCC1C(CNC(=O)c2ccc(Br)[nH]2)Cc2[nH]c(N)nc2C1c1c[nH]c(N)n1` (stereo not shown) [Compound 4, N(1)-methylisoageliferin] was 33000 nM; that for `Cn1c(Br)ccc1C(=O)NC[C@H]1Cc2nc(N)[nH]c2[C@@H](c2c[nH]c(N)n2)[C@@H]1CNC(=O)c1cc(Br)c[nH]1` [Compound 5, N(1′)-methylisoageliferin] was 25000 nM; that for `Cn1cc(Br)cc1C(=O)NC[C@H]1Cc2nc(N)[nH]c2[C@@H](c2c[nH]c(N)n2)[C@@H]1CNC(=O)c1cc(Br)c[nH]1` [Compound 6, N(1′)-methylageliferin] was 30000 nM.

For the molecule `Cn1cc(Br)cc1C(=O)NC[C@@H]1[C@@H](CNC(=O)c2ccc(Br)n2C)Cc2nc(N)[nH]c2[C@H]1c1c[nH]c(N)n1` [Compound 7, N(1),N(1′)-dimethylisoageliferin], the IC50 came out at 18000 nM. Consider `Cn1cc(Br)cc1C(=O)NC[C@H]1Cc2nc(N)[nH]c2[C@@H](c2c[nH]c(N)n2)[C@@H]1CNC(=O)c1cc(Br)cn1C` [Compound 8, N(1),N(1′)-dimethylageliferin], for which the IC50 stood at 19000 nM. The value for `Cn1cc(Br)cc1C(=O)NC[C@H]1Cc2nc(N)[nH]c2[C@@H](c2c[nH]c(N)n2)[C@@H]1CNC(=O)c1cc(Br)c(Br)[nH]1` [Compound 9, N(1′)-methyl-2-bromoageliferin] was 19000 nM; that for `Cn1c(C(=O)NC[C@H]2Cc3nc(N)[nH]c3[C@@H](c3c[nH]c(N)n3)[C@@H]2CNC(=O)c2cc(Br)c[nH]2)cc(Br)c1Br` [Compound 10, N(1′)-methyl-2′-bromoageliferin] was 35000 nM.

The IC50 is the concentration that inhibits the measured activity by half.
